In ChEMBL document CHEMBL5230150, “Antiviral fungal metabolites and some insights into their contribution to the current COVID-19 pandemic” (Bioorg Med Chem, 2021):
Values after ≈ are worked out from the molar mass of the structure shown. Square brackets hold non-standard residues; d marks the D form. Peptide text beside a SMILES is read from it. * marks the point of attachment. Pro(4R-Me) = C[C@H]1CN[C@H](C(=O)O)C1; Oleoyl = CCCCCCCC/C=C\CCCCCCCC(=O)*; hSer = N[C@@H](CCO)C(=O)O

What was measured:
Hepatitis C virus = assay: Antiviral activity against HCV J8CC; assay type: functional, organism-based, Hepacivirus hominis
[1] = tested on: Human immunodeficiency virus 1; assay: Antiviral activity against HIV-1 infected in SUP-T1 cells assessed as inhibition of viral replication at MOI of 1 treated for 48 hrs by luciferase assay; assay type: functional, organism-based; details: Human immunodeficiency virus 1, SUP-T1, 48 h
dengue virus type 2 [2] = assay: Antiviral activity against DENV2 16681 infected in HEK293T/17 cells assessed as reduction in viral replication at MOI of 1 to 10 incubated for 24 hrs by standard plaque assay; assay type: functional, organism-based; details: Dengue virus, 16681, HEK293T/17, 24 h
Influenza A virus [3] = assay: Antiviral activity against Influenza A virus A/Puerto Rico/8/34(H1N1) strain infected in MDCK cells assessed as inhibition of viral infection incubated for 60 mins by CPE inhibition assay; assay type: functional, organism-based; details: 1 h
dengue virus type 2 [4] = assay: Antiviral activity against DENV2 assessed as inhibition of viral replication by DENV RNA-dependent RNA polymerase assay; assay type: functional, organism-based
Influenza A virus [5] = assay: Antiviral activity against Influenza A virus H3N2 subtype infected in MDCK cells assessed as inhibition of viral replication incubated for 48 hrs by CPE inhibition assay; assay type: functional, organism-based
Zika virus [6] = assay: Antiviral activity against ZIKV Z16019 infected in A549 cells assessed as inhibition in viral replication at MOI of 1 incubated for 1 hr by plaque assay; assay type: functional, organism-based; details: Z16019, A549, 1 h
Zika virus [7] = assay: Antiviral activity against ZIKV infected in A549 cells assessed as viral replication inhibition; assay type: functional, organism-based
Influenza A virus [8] = assay: Antiviral activity against Influenza A virus A/Puerto Rico/8/34(H1N1) strain infected in MDCK cells assessed as inhibition of viral infection by CPE inhibition assay; assay type: functional, organism-based
dengue virus type 2 [9] = assay: Antiviral activity against DENV2 00st-22A infected in Vero cells assessed as reduction in viral replication at MOI of 0.5 incubated for 48 hrs by focus-forming assay; assay type: functional, organism-based
Influenza A virus [10] = assay: Antiviral activity against Influenza A virus H1N1 subtype infected in MDCK cells assessed as inhibition of viral replication incubated for 48 hrs by CPE inhibition assay; assay type: functional, organism-based

**Q.** `CC1(C)C(=O)N2c3ccccc3[C@@]3(C[C@H]4n5c(nc6ccccc6c5=O)C(=O)C(C)(C)[C@@]4(O)O3)[C@@H]2N1S(C)(=O)=O` was tested. Which EC50 (Hepatitis C virus) did it give?
**A.** The EC50 was 110 µM.

**Q.** With `C=C(C)C#CC1=C[C@@H]2O[C@@H](C(C)(C)O)C[C@]23O[C@@H]3[C@H]1O` as the compound, how does the IC50 [1] read?
**A.** The IC50 was 16.1 µM.

**Q.** `CC[C@@H]1N[C@@H]2N(C1=O)c1ccccc1[C@@]2(O)C[C@@H]1C(=O)NC(=C(C)C)c2nc3ccccc3c(=O)n21` was tested. Which EC50 (Hepatitis C virus) did it give?
**A.** Its EC50 is 129 µM.

**Q.** `CC(C)[C@@H]1NC(=O)[C@@H](C[C@@]2(O)c3ccccc3N3C(=O)C(C)(C)N[C@@H]32)n2c1nc1ccccc1c2=O` was tested. Which EC50 (dengue virus type 2 [2]) did it give?
**A.** Its EC50 is 4.73 µM.

**Q.** `C=C(CC[C@@H](C)[C@H]1CC=C2C3=C(CC[C@@]21C)[C@@]1(C)CC[C@H](O)C[C@@H]1CC3=O)C(C)C` was tested. Which IC50 [1] did it give?
**A.** Its IC50 is 3.5 µM.

**Q.** For `COc1cc(O)c2c(c1)C(=O)C1=C(C[C@@H](O)[C@@](C)(O)C1)C2=O` [ALTERSOLANOL B], which IC50 (Influenza A virus [3]) is on record?
**A.** The IC50 was 7.82 µg/mL (≈ 25.7 µM).

**Q.** How did the IC50 (Influenza A virus [3]) turn out when `CC[C@H](C)C(=O)[C@H]1C(=O)O[C@@]2(C)C(=O)C=C3C=C(C)OC=C3[C@H]12` [CHERMESINONE B] was run?
**A.** The IC50 was 0.8 µg/mL (≈ 2.53 µM).

**Q.** `COc1cc(O)c2c(c1)C(=O)C1=C(C2=O)[C@H](O)[C@@H](O)[C@@](C)(O)C1` was tested. Which IC50 (Influenza A virus [3]) did it give?
**A.** The IC50 was 8.35 µg/mL (≈ 26.1 µM).

**Q.** Which IC50 (dengue virus type 2 [4]) does the source give for `C/C=C(\C)[C@@H]1C(C)=C[C@@H]2CC(=O)C[C@H](C)[C@H]2[C@@H]1/C=C/C=C/C(=O)O` here?
**A.** The IC50 was 11.8 µM.

**Q.** Which EC50 (Influenza A virus [5]) does the source give for `COC(=O)/C(C)=C/COc1cc(=O)oc(/C=C/C=C/C=C/[C@H]2O[C@H]3O[C@H](C)[C@](C)(O)[C@@]3(C)[C@H]2O)c1C` here?
**A.** The EC50 was 8.9 µM.

**Q.** How did the EC50 (Zika virus [6]) turn out when `CCCCCCCC/C=C\CCCCCCCC(=O)N[C@H](C(=O)N1C[C@H](C)C[C@H]1C(=O)N[C@H](C(=O)N[C@@H](CCOC(C)=O)C(=O)N[C@@H](C)C=O)C(C)C)[C@@H](C)O` (Oleoyl-T[Pro(4R-Me)]V[hSer](Ac)A-aldehyde) was run?
**A.** The EC50 was 5 µM.

**Q.** And the IC50 (Zika virus [7])?
**A.** Its IC50 is 0.15 µM.

**Q.** With `COc1ccc2oc3cc(C)c(O)c(CO)c3c(=O)c2c1OC` as the compound, how does the IC50 (Influenza A virus [8]) read?
**A.** Its IC50 is 2.17 µM.

**Q.** For `C[C@H]1CCC/C=C/[C@@H]2C[C@H](O)C[C@H]2[C@H](O)/C=C/C(=O)O1` [BREFELDIN A], which IC50 (dengue virus type 2 [9]) is on record?
**A.** Its IC50 is 0.0546 µM.

**Q.** Which IC50 (Influenza A virus [8]) does the source give for `COc1cccc2oc3cc(C)c(O)c(CO)c3c(=O)c12` here?
**A.** The IC50 was 4.7 µM.

**Q.** With `CC[C@H]1O[C@@H]2O[C@H](/C=C/C=C/C=C/c3oc(=O)cc(OC/C=C(\C)C(=O)OC)c3C)[C@H](O)[C@]2(C)[C@@]1(C)O` as the compound, how does the EC50 (Influenza A virus [10]) read?
**A.** The EC50 was 3.5 µM.

**Q.** What about the EC50 (Influenza A virus [5]) of the same compound?
**A.** The EC50 was 6.2 µM.

**Q.** With `O=C(C(=O)c1c[nH]c2ccccc12)c1c[nH]c2ccccc12` as the compound, how does the EC50 (Zika virus [6]) read?
**A.** Its EC50 is 4.2 µM.

**Q.** `CC[C@H](C)[C@@H](O)C(=O)[C@H]1C2=COC(C)=CC2=CC(=O)[C@@]1(C)O` was tested. Which IC50 [1] did it give?
**A.** The IC50 was 0.5 µM.

**Q.** Which IC50 (dengue virus type 2 [4]) does the source give for `CC(=O)OC/C=C(\C)[C@@H]1C(C)=C[C@@H]2CC[C@H](O)[C@H](C)[C@H]2[C@@H]1/C=C/C=C/C(=O)O` here?
**A.** Its IC50 is 13.6 µM.

**Q.** Which IC50 (Influenza A virus [3]) does the source give for `C[C@]1(O)CC2=C(C(=O)c3c(O)cc(O)cc3C2=O)[C@H](O)[C@H]1O` here?
**A.** The IC50 was 2.59 µg/mL (≈ 8.46 µM).

**Q.** Which IC50 (Influenza A virus [8]) does the source give for `C=C1CCC[C@]2(C)[C@H]3COC(=O)[C@H]3CC[C@@]12O` here?
**A.** Its IC50 is 2.96 µg/mL.
